In one data set the test system is rat liver homogenate. Briefly: Indigoid-dye formation in rat liver homogenate. In kind it is biochemical. The method, then:
Finally, indigoid-dye formation was carried out in rat liver homogenate (Table 1, rightmost column).
Reactions in rat liver homogenate. An indoxyl compound in DMF (5 μL, 20 mM) was mixed with rat liver homogenate (95 μL). The reaction mixture was incubated at 37° C. for 24 h. After allowing to cool to room temperature, the reaction mixture was diluted with DMF (900 μL). The mixture was heated at 70° C. for 2 min and then centrifuged for 2 min. The supernatant was separated from any precipitate. This extraction procedure was repeated two or three times with DMF (100-500 μL). The combined supernatant (1500-1800 μL) was analyzed by absorption spectroscopy.

Data set [1] has as its system β-glucosidase from almonds. Nature of the data set: Indigogenic reaction with β-glucosidase from almonds. In kind it is biochemical.
Data set [2] deals with T1, β-glucosidase from Agrobacterium plus rat liver homogenate (Agrobacterium sp., UniProt P12614).
T1 construct: purchased Megazyme
T1 sequence (P12614 1-459): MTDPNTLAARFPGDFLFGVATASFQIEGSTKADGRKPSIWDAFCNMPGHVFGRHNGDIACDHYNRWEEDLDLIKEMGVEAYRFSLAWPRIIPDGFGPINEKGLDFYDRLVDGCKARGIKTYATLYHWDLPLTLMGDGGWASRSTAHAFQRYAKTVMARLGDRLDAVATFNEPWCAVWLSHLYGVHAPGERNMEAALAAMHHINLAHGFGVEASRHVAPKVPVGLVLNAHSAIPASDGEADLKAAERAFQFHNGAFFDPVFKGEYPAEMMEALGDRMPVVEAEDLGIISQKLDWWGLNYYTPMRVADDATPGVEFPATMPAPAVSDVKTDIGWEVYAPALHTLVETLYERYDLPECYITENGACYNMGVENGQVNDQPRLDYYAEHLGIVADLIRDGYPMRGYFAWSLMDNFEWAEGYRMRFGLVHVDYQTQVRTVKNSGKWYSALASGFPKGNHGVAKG
Nature of the data set: Reaction of 33 with β-glucosidase from Agrobacterium in rat liver homogenate. In kind it is biochemical. To be noted: 33 100 μM, enzyme 200 nM, rat liver homogenate with 2% DMF, 37° C., 4 h; ε measured for 43 (footnotes g,h). As for the experimental part:
Reaction of 33 with β-glucosidase from Agrobacterium in rat liver homogenate. A DMF solution of 33 (2 μL, 5 mM) and β-glucosidase from Agrobacterium in 10 mM phosphate buffer [2 μL, 10 μM, pH 7.0, containing 50 mM NaCl and 0.6 M (NH4)2SO4] were mixed with rat liver homogenate (96 μL). The reaction mixture was incubated at 37° C. for 4 h and then centrifuged for 3 min. Any precipitate was separated from the supernatant and then suspended in DMF (200 μL). The suspension was centrifuged for 3 min. The supernatant was analyzed by absorption spectroscopy.

Data set [3] concerns the target T2, β-glucosidase from Agrobacterium (Agrobacterium sp., UniProt P12614).
T2 construct: purchased Megazyme
T2 sequence (P12614 1-459): T1 sequence (P12614 1-459)
Nature of the data set: Indigogenic reaction with β-glucosidase from Agrobacterium. In kind it is biochemical. As for the experimental part: Next, the β-glucosidase from Agrobacterium sp. was investigated as the trigger enzyme for indigoid dye formation. […] The reaction was carried out using the enzyme (200 nM) and indoxyl-glucoside 33 (100 μM) in phosphate buffer (pH 4-9, containing 2% DMF) at 37° C. […] Note that with 200 nM enzyme and 100 μM substrate, complete reaction requires 500 turnovers of each enzyme.
Reactions with β-glucosidase from Agrobacterium. An indoxyl compound in DMF (2 μL, 5 mM) and β-glucosidase from Agrobacterium in 10 mM phosphate buffer [2 μL, 10 μM, pH 7.0, containing 50 mM NaCl and 0.6 M (NH4)2SO4] were mixed with 50 mM phosphate buffer (96 μL, pH 7.0). The reaction mixture was incubated at 37° C. for 2 h and then centrifuged for 3 min. Any precipitate was separated from the supernatant and dissolved in DMF (200 μL). The resulting solution was analyzed by absorption spectroscopy. The experiment was repeated three times.

Data set [4] in a line: Solubility in aqueous buffer. The class given is physicochemical. The following applies: 100 mM phosphate buffer (pH 7.4, containing 100 mM NaCl), room temperature. An excerpt: Water solubility of the indoxyl glucoside is important for biological applications. […] Therefore, this compound is not suitable for bioconjugation. The synthesis of 34 relies on successive substitution of the dichloroanilinotriazine unit (derived from N,N-bis(2-methoxyethyl)aniline^31 and cyanuric chloride) with indoxyl-glucoside-PEG-OH and BCN-PEG-NH2 building blocks.
To improve the water solubility of the indoxyl species, a sulfobetaine unit^32,33 was incorporated as a water-solubilizing group. Sulfobetaines are stable zwitterions over a wide range of pH. Synthesis of an indoxyl bearing a sulfobetaine unit is illustrated in Scheme 6. Boc-piperazine (35) was treated with 1,3-propane sultone to afford 36 in 63% yield. Quaternization of the tertiary nitrogen atom in 36 with 3-bromopropanol gave Boc-protected sulfobetaine 37 in 69% yield. The Boc group was cleaved with trifluoroacetic acid (TFA) to afford piperazine-TFA salt 38 in 97% yield. The N-acetyl group of 32 was selectively deprotected with NaHCO3/MeOH in 84% yield. The product 39, piperazine-TFA salt 38, and BCN-amine 14 were assembled at a triazine ring via one-flask, successive substitution of cyanuric chloride to afford 40 in 51% yield. Cleavage of the acetyl groups of sulfobetaine 40 provided 41 in 98% yield.

For data set [5], the target named is T3, β-glucosidase from Agrobacterium sp. (Agrobacterium sp., UniProt P12614).
T3 construct: purchased Megazyme
T3 sequence (P12614 1-459): T1 sequence (P12614 1-459)
Nature of the data set: Oligomerization of compound V with β-glucosidase. In kind it is biochemical. The method, then:
The oligomerization of compound V was examined by treatment with the enzyme-glucosidase. The reaction mixture contained 50 μM of compound V and 200 nM of β-glucosidase (250-fold ratio). The reaction mixture was only faintly blue but upon centrifugation after 5 h of incubation, a blue precipitate was obtained. According to the colors of samples (FIG. 13, panel A), the yield of precipitate is low by comparison with our previously reported enzyme-substrate pairs (see Example 1). Multiple additions of enzyme (4×0.20 μM of enzyme stock, every 2 h) and longer incubation times (10 h or 24 h) were also tested but no increase in solution intensity or precipitate was observed. For the samples after 300 min of incubation, the precipitates suspended in H2O were screened by optical microscopy (FIG. 13, panel B) and DLS (FIG. 13, panel C). The size of aggregates is between 100 and 1000 nm as measured by DLS, which is consistent with the images obtained by optical microscopy (˜1 μm).
Quantitation of the indigogenic compounds in the precipitate and supernatant was carried out by absorption spectroscopy and multicomponent analysis (MCA) (M. Taniguchi, et al., Photochem. Photobiol., 2018, 94, 277-289) (FIG. 13, panels D and E). MCA analysis is essential due to the overlaid spectra of indigo and coumarin at 362 nm, the peak wavelength for the coumarin. Spectral deconvolution relied on knowledge of the molar absorption coefficient at 362 nm of coumarin (εcou362=2.0×10^4 M^−1 cm^−1, measured in DMF) and indigo model compound F19 (see Example 1 where F-19 is compound 43) shown in Chart 2 (εind362=0.81×10^4 M^−1 cm^−1, measured in DMSO/H2O, v/v=2/1); and the molar absorption coefficient of F19 at 630 nm (εind630=2.6×10^4 M^−1 cm^−1, measured in DMSO/H2O, v/v=2/1). The residual upon MCA was smaller than any of the components, as required for accurate analysis (Y. Zhang, et al., Phytochem. Anal., 2018, 29, 205-216). In this manner, the precipitate is composed of 51.6 nmol of coumarin and 2.8 nmol of indigoid dye; the supernatant is composed of 11.1 nmol of coumarin and 0.3 nmol of indigoid dye.
Materials. DMF (HPLC grade) was purchased from Alfa Aesar. H2O (molecular biology grade) for buffer preparation was purchased from Millipore Sigma. Compound V (5.6 mg) was dissolved in DMF (26 μL) to prepare 100 mM stock solution. Pi buffer was prepared freshly at 10 mM, pH 7. The enzyme β-glucosidase from Agrobacterium sp. was purchased from MegaZyme and was dissolved in Pi buffer at 10 μM to prepare the stock solution.
To screen the oligomerization procedure of compound V, samples of Pi buffer (1859 μL), DMF (100 μL), […]-glucosidase stock (40 μL) and compound V stock (1 μL) were mixed in a 2-mL Eppendorf tube. The resulting mixed sample (2.0 mL) contains 50 μM of compound V as the substrate and 0.20 μM of β-glucosidase as the enzyme. Three identical samples were prepared for different assays. For a control sample, 40 μL of Pi buffer was added as a replacement for the β-glucosidase stock solution. The tubes were incubated at 37° C. for 5 h, and pictures of the tubes were captured at 0, 15, 30, 60, 120, 180 and 300 min. After 300 min, the tubes were centrifuged at 20,000×g for 10 min to isolate any precipitate from the supernatant. No precipitate formed in the control sample.
Three samples were treated differently for three assays: (1) for sample 1, the precipitate was dissolved in 100 μL of DMF for absorption screening; (2) for sample 2, the precipitate was suspended in 100 μL of H2O for microscopic imaging; and (3) for sample 3, the precipitate was suspended in 1000 μL of H2O for dynamic light scattering (DLS) assay. The supernatant of sample 1 was freeze-dried under high vacuum and afterwards dissolved in 100 μL of DMF for absorption screening. The absorption spectra of the precipitates and supernatants were employed for quantitation of indigo and coumarin. […]

Setting [6] is: as E1 but ε measured for 43 (footnote g).
[7] abbreviates: as E4 but ε measured for 43 (footnote g).
Setting [8] is: indoxyl 1 mM in rat liver homogenate, 5% DMF, 37° C., 24 h, ε = 1.27 × 10^4 M^−1 cm^−1 measured for 4.
Setting [9] is: indoxyl 1 mM, enzyme 1 unit/mL, 0.01M acetate buffer pH 5, 5% DMF, 37° C., 16-19 h, ε = 1.27 × 10^4 M^−1 cm^−1 measured for 4.
The mark [10] stands for this setting: indoxyl 100 μM, enzyme 200 nM, 0.05M phosphate buffer pH 7.0, 2% DMF, 37° C., 2 h, three repeats, ε = 1.27 × 10^4 M^−1 cm^−1 measured for 4.
[11] abbreviates: 50 μM compound V (100 nmol), 200 nM β-glucosidase, 37° C., 300 min, MCA.
The mark [12] stands for this setting: 50 μM compound V (100 nmol), 200 nM β-glucosidase, 37° C., 300 min, absorption spectroscopy with MCA.

SMILES strings stand for the structures. “And” between values parts separate entries of the source, which are not always exact repeats. Equal values may be shown once.

With `OCCOCCOCCOc1c(Br)cc2[nH]cc(O[C@@H]3O[C@H](CO)[C@@H](O)[C@H](O)[C@H]3O)c2c1Br` [compound 33, 4,6-Dibromo-5-[1-hydroxy-3,6,9-trioxanon-9-yl]-1H-indol-3-yl β-D-glucopyranoside], in the data set on rat liver homogenate (as E7 but ε measured for 43 (footnote g)), the “Yield (%) of indigoid dye, rat liver homogenate” value is on record as less than 5%. Also, the “Yield (%) of indigoid dye, β-glucosidase from almonds” value (“Yield (%) … from almonds” for short) in data set [1] (setting [6]) is 52% and 52^g %. In addition, the “Yield (%) of indigoid dye, β-glucosidase from Agrobacterium plus rat liver homogenate” value in data set [2] is 81% and 81 ± 5%. In data set [3] (setting [7]), the “Yield (%) of indigoid dye, β-glucosidase from Agrobacterium” value is 99% and 99 ± 5^g %.
For the compound `O=C(NCCOCCOCCNc1nc(OCCOCCOCCOc2c(Br)cc3[nH]cc(OC4O[C@H](CO)[C@@H](O)[C@H](O)[C@H]4O)c3c2Br)nc(N2CC[N+](CCCO)(CCCS(=O)(=O)[O-])CC2)n1)OC[C@@H]1[C@@H]2CCC#CCC[C@@H]21` (stereo partly drawn) [compound 41], the solubility in data set [4] is more than 400 µM. Also, in data set [3] (setting [7]), the “Yield (%) of indigoid dye, β-glucosidase from Agrobacterium” value was 106% and 106 ± 4^g %.
As to `C#CCOc1ccc2[nH]cc(O[C@@H]3O[C@H](CO)[C@@H](O)[C@H](O)[C@H]3O)c2c1Br` [compound 26, 4-Bromo-5-propargyloxy-1H-indol-3-yl β-D-glucopyranoside], the “Yield (%) of indigoid dye, rat liver homogenate” value with rat liver homogenate (setting [8]) is on record as 17%. In addition, in data set [1] (setting [9]), the “Yield (%) … from almonds” value worked out at 56%. Moreover, the “Yield (%) of indigoid dye, β-glucosidase from Agrobacterium” value in data set [3] (setting [10]) is listed as 79 ± 1%.
For `Cc1cc(=O)oc2cc(NCCNc3nc(NCCOCCOCCOCCOCCOCCN=[N+]=[N-])nc(OCCC[N+]4(CCCS(=O)(=O)[O-])CCN(c5nc(OCCOCCOCCOc6c(Br)cc7[nH]cc(O[C@@H]8O[C@H](CO)[C@@H](O)[C@H](O)[C@H]8O)c7c6Br)nc(OCCOCCOCCOc6c(Br)cc7[nH]cc(O[C@@H]8O[C@H](CO)[C@@H](O)[C@H](O)[C@H]8O)c7c6Br)n5)CC4)n3)ccc12` [Compound V, 2,4-Bis[1-(3-(β-D-glucopyranosyloxy)-4,6-dibromo-1H-indol-5-yl)-1,4,7,10-tetraoxadec-10-yl]-6-[4-(3-(2-(1-azido-3,6,9,12,15-pentaoxoheptadecylamino)-4-[2-((4-methyl-2H-chromen-2-one-7-yl)amino)ethylamino]-1,3,5-triazin-6-yloxy)propyl)-4-(3-sulfopropyl)piperazin-1-yl]-1,3,5-triazine], the “total amount of coumarin calculated by MCA” value in data set [5] (100 nmol compound V added) is listed as 62.7 nmol. In data set [5] (setting [11]), the “coumarin in the precipitate” value was 51.6 nmol and the “coumarin in the supernatant” value stood at 11.1 nmol. For the same compound, in data set [5] (setting [12]), the “indigoid dye in the precipitate” value was 2.8 nmol and the “indigoid dye in the supernatant” value stood at 0.3 nmol. Further, the “total quantity of indigoid dye” value in data set [5] (precipitate plus supernatant, 100 nmol compound V added) is listed as 3.1 nmol. Also, the “yield of indigoid dye” value in data set [5] (total indigoid dye, 100 nmol compound V added) came to 3.1%.
As to `C#CCOc1c(Br)cc2[nH]cc(O[C@@H]3O[C@H](CO)[C@@H](O)[C@H](O)[C@H]3O)c2c1Br` [compound 27, 4,6-Dibromo-5-propargyloxy-1H-indol-3-yl β-D-glucopyranoside], the “Yield (%) of indigoid dye, rat liver homogenate” value in the data set on rat liver homogenate (setting [8]) stood at 50%. The “Yield (%) … from almonds” value came to 51% in data set [1] (setting [6]) and 105% in data set [1] (setting [9]). The results for the “Yield (%) of indigoid dye, β-glucosidase from Agrobacterium” value in data set [3] (setting [7]) and in data set [3] (setting [10]) were 89 ± 2% and 184 ± 3%, respectively.

As usually defined, the solubility is how much of the substance goes into solution per volume. A higher solubility goes with much dissolved substance.

Values taken from US12502440B2, “Cross-linking compounds and methods of use thereof” (North Carolina State University, priority 2019, dated 2025).
